This is an account of results in patent US20030232101A1, “Topical formulations of resorcinols and cannibinoids and methods of use” (Immugen Pharmaceuticals, Inc., priority 2002, published 2003).

One series relates to HIV-1 strain RoJo. As to the kind of experiment: PBMC time of addition assay (RT activity in supernatant at 6 days). The series is classed as cell-based. The note with it: for IC50: read-out: IC50. An excerpt:
(§1) Human peripheral blood mononuclear cells (PBMCs) from a minimum of 2 donors, that have been blasted with PHA and IL-2, were counted, viability determined by Trypan Blue dye exclusion and mixed in equal ratios. Pooled donors were used to minimize the variability observed between individual donors which results from quantitative and qualitative differences in HIV infection and overall response to the PHA and IL-2 of primary lymphocyte populations. The cells were resuspended at 1×10^6 cells /mL in RPMI 1640 without phenol red supplemented with 15% Fetal Bovine Serum (heat inactivated), 2 mM L-glutamine, 100 U/mL penicillin, 100 μg/mL streptomycin, 10 μg/mL gentamycin and IL-2 (20 U/mL, R&D Systems, Minneapolis, Minn.). Fifty microliters of cells were then distributed to the inner 60 wells of a 96 well round bottom microtiter culture plate in a standard format developed by the Infectious Disease Research department of Southern Research Institute. Each plate contains cell control wells (cells only), virus control wells (cells plus virus), and experimental wells (drug plus cells plus virus). Alternatively, cells were cultured in T25 cm^2 or T75 cm^2 tissue culture flasks at a starting density of 1×10^6 cells per ml. Serially diluted compounds were added to the microtiter plate or tissue culture flask followed by the appropriate pre-titered strain of HIV-1. For virus replication inhibition experiments the HIV-1 strain RoJo was used. This is a low passage presumable subtype B pediatric isolate with a syncytium inducing (SI) phenotype in MT-2 cells isolated by Southern Research Institute personnel. All samples were assayed in triplicate where possible with an accompanying determination of compound toxicity. The final volume per well in the microtiter plates was 200 μL. The final volume in the tissue culture flask varied depending upon experimental design and flask size. Assays were incubated for 6 days in a humidified atmosphere at 37° C., 5% CO^2, after which supernatants were collected, for analysis of RT activity and cell viability by MTS dye reduction. Culture were also examined microscopically, any abnormalities noted, and in the case of tissue culture flasks cell counts and viability determined by Trypan Blue Dye exclusion.
(§2) Time of addition assays were performed with PBMCs in two ways. For both assays, PBMCs were isolated and cultured under the conditions as described above. Time of addition assays were carried out in either a tissue culture flask format (T-75 cm^2) or in microtiter wells. In both cases due to the lack of plastic adherence and heterogeneity of the PBMC population for susceptibility to infection, it was not possible to use complete removal of virus following a timed adsorption to synchronize the infection and limit the assay to a single round of infection. Therefore, serial washing by partial removal of the media was used to reduce the concentration of virus and compound (if required) in the assay. Compound addition in relationship to antiviral activity was either assessed over a short addition interval immediately before or after virus addition or for up to 72 h post infection. For all assays virus replication was assessed at 6 days of culture by determining RT expression in cell-free supernatants. In the tissue culture flask format cells were counted and Trypan Blue Dye exclusion used to monitor compound cytotoxicity. Cell viability in the 96 well microtiter plate format was determined by MTS dye reduction. AZT was used as a positive control.
Reverse transcriptase activity was measured in cell-free supernatants. Tritiated thymidine triphosphate (NEN) (TTP) was resuspended in distilled H2O at 5 Ci/mL. Poly rA and oligo dT were prepared as a stock solution which was kept at −20° C. The RT reaction buffer was prepared fresh on a daily basis and consists of 125 μL 1.0 M EGTA, 125 μL dH2O, 110 μL 10% SDS, 50 μL 1.0 M Tris (pH 7.4), 50 μL 1.0 M DTT, and 40 μL 1.0 M MgCl2. […]

The test system of series [1] is peripheral blood mononuclear cells (PBMCs). As to the kind of experiment: PBMC cell viability in time of addition assay (MTS / Trypan Blue). The series is classed as cell-based, Human. Particulars: read-out: TC50 (the source's name).
Source text: as §1, §2
At assay termination the assay plates were stained with the soluble tetrazolium-based dye MTS (CellTiter96® Reagent Promega) to determine cell viability and quantify compound toxicity. MTS is metabolized by the mitochondria enzymes of metabolically active cells to a soluble formazan product, allowing the rapid quantitative analysis cell viability and compound cytotoxicity. […] At termination of the assay 20 μL of MTS reagent was added per well and incubated for 4 h at 37° C. […]

A further series concerns IIIB strain of HIV-1. The series is described as follows: Virus attachment assay, HeLa CD4 LTR β-gal cells (Experimental Example 2). The series is classed as cell-based. The note with it: virus adsorption interval 1 to 2 h. As for the experimental part: This assay detects compounds that block virus attachment using HeLa CD4 LTR β-gal cells. HeLa CD4 LTR β-gal cells were cultured with selection antibiotics. Twenty-four h prior to initiation of the assay, the cells were trypsinized, counted and plated in a 0.2 cm well in media without selection antibiotics. At 24 h media is removed and compound in media placed on the cells and incubated for 15 min at 37° C. A known titer of the IIIB strain of HIV-1 was then added to the wells and the incubation continued for 1 to 2 h. At the end of the incubation the wells were washed 2 times with media and the culture continued for 40 to 48 h. At termination of the assay, media is removed and β-galactosidase enzyme expression determined by chemiluminescence per manufacturer's instructions (Tropix Gal-screen, Bedford Mass.). Compound toxicity is monitored on a sister plate by XTT or MTS dye reduction. All determinations are performed in triplicate with serial_Log10 dilution of the test materials.

The subject of a further series is HIV-1 (96USHIPS7 strain). As to the kind of experiment: HIV attachment assay in PBMCs (cell-associated p24). The note with it: time 0 h. The series is classed as cell-based. Here is the method:
ELISA kits were purchased from Coulter Electronics. The assay was performed according to the manufacturer's instructions. Control curves were generated in each assay to accurately quantitate the amount of p24 antigen in each sample. For experiments using cell lysates. Fifty thousand (5×10^4) viable cells were lysed in Coulter ELISA buffer and subjected to 1 round of freeze/thawed to liberate trapped p24 and p24 detected per manufacturers instructions. HIV capsid protein (p24) was quantitated spectrophotometrically at 450 nm using a Molecular Devices Vmax plate reader using a standard curve. Final concentrations were calculated from the optical density values using the Molecular Devices Soft Max software package.
The attachment assay with PBMCs was performed as follows. Briefly, 1×10^6 PHA/IL-2 PBMCs were incubated for 0, 2, 4 and 24 hours with IMG compounds and cannabidiol in polypropylene tubes. A pre-titered amount of HIV-1 (96USHIPS7 strain, obtained from the AIDS Research and Reference Reagent Program ) was added in the presence of compound and incubated for 3 h at 37° C. After incubation the cultures were washed 3 times (400×g, 10 min, 4° C.) with media (1:25,000 dilution of input p24), the cell pellets lysed with p24 lysing buffer (Coulter) and p24 content determined by ELISA.
PBMCs pretreated with compounds for 0, 2, 4, and 24 were incubated with cell-free HIV-1 for 3 h and the excess unbound HIV removed. The assessed the amount of HIV bound to the cell was then assessed by measuring cell-associated p24 content of total cell lysates.

Like-named read-outs stand apart in the source and are kept apart here.

Consider `Cc1cn([C@H]2C[C@H](N=[N+]=[N-])[C@@H](CO)O2)c(=O)[nH]c1=O` [AZT, reference compound], for which the enhancement of activity with HIV-1 strain RoJo (4 h preincubation) is 4.6 fold. The half-inhibitory concentration (IC50) was 1 nM in the series on HIV-1 strain RoJo (addition prior to infection, pre-treatment 0 h); 1 nM in the series with HIV-1 strain RoJo (addition prior to infection, pre-treatment 2 h); 1 nM in the series with HIV-1 strain RoJo (addition prior to infection, pre-treatment 4 h); 3 nM in the series with HIV-1 strain RoJo (addition prior to infection, pre-treatment 24 h); 4.6 nM in the series with HIV-1 strain RoJo (treatment 6 h post); 3.7 nM in the series on HIV-1 strain RoJo (treatment at infection). For the same compound, the IC50 with HIV-1 strain RoJo (treatment −4 h pre) was found to be 0.8 nM. The CC50 in series [1] (treatment 6 h post), in series [1] (treatment at infection) and in series [1] (treatment −4 h pre) was more than 4000 nM in each case. The “activity in virus attachment assay” value in the series on IIIB strain of HIV-1 was “not active”.

For `Cc1ccnc2c1NC(=O)c1cccnc1N2C1CC1` [Nevirapine, reference compound], in the series with HIV-1 (96USHIPS7 strain) (10 μM), the “% Control” value is given as 81.2%, the “pg p24” value was 311.7 pg and the “suppression of virus attachment” value turned out to be 19% suppression. Also, the “suppression of virus attachment” value in the series on HIV-1 (96USHIPS7 strain) (10 μM, listed as nevaripine) came out at 19%.

With Dextran Sulfate [reference compound], in the series on HIV-1 (96USHIPS7 strain) (20 μg/ml), the “% Control” value is on record as 57.6%, the “pg p24” value came to 221 pg and the “suppression of virus attachment” value came out at 43.4% suppression. Also, the “suppression of virus attachment” value in the series with HIV-1 (96USHIPS7 strain) (20 μg/ml, listed as dextran sulfate) is recorded as 43.4%.

The term IC50 denotes the concentration needed to halve the response being measured.
